Assay results from US7718578B2, “Method of synthesis and testing of combinatorial libraries using microcapsules” (Medical Research Council, priority 2003, dated 2010).

Columns and labels:
[1] = Compartmentalisation of small molecules in water-in-fluorocarbon emulsions (epifluorescence microscopy); format: physicochemical; conditions: water-in-perfluorooctyl bromide emulsions mixed by vortexing, 24 hours after mixing
Description: Water-in-fluorocarbon emulsions containing 95% (v/v) perfluorooctyl bromide, 5% (v/v) phosphate buffered saline containing the molecule of interest in solution, and 2% (w/v) C8F17C11H22OP(O)[N(CH2CH2)2O]2 (F8H11DMP) as surfactant were formed essentially as (Sadtler et al., 1996) by extrusion (15 times) through 14 μm filters (Osmonics) or by homogenising for 5 min at 25,000 r.p.m. using an Ultra-Turrax T8 Homogenizer (IKA) with a 5 mm dispersing tool. Emulsions were made containing a series of small fluorescent molecules dissolved in the aqueous phase at concentrations from […] to 2 mM. These molecules, including calcein, texas red, fluorescein, coumarin 102, 7-hydroxycoumarin-3-carboxylic acid and 7-diethylamino-4-methyl coumarin (coumarin 1), had molecular weights from 203 to 625 Da and Log P values—calculated using SRC's LogKow/KowWin Program (Meylan and Howard, 1995)—ranging from −0.49 to 4.09. Emulsions containing different coloured fluorochromes were mixed by vortexing. Compartmentalisation was observed by epifluorescence microscopy of the mixed emulsions. No exchange between compartments was observed 24 hours after mixing (see FIG. 5).

[2] = molecular target: T1, human recombinant PTP1B, residues 1-322 (Homo sapiens, UniProt P18031); assay: Screening for PTP1B inhibitors in water-in-oil emulsion microcapsules with fluorogenic substrate DiFMUP, multi-colour flow cytometry; format: biochemical; conditions: PTP1B 5 mU/ml, 37° C. for 30 min
T1 construct: human recombinant PTP1B, residues 1-322; Biomol Research Laboratories, Inc; purchased Biomol Research Laboratories, Inc
T1 sequence (P18031 1-322): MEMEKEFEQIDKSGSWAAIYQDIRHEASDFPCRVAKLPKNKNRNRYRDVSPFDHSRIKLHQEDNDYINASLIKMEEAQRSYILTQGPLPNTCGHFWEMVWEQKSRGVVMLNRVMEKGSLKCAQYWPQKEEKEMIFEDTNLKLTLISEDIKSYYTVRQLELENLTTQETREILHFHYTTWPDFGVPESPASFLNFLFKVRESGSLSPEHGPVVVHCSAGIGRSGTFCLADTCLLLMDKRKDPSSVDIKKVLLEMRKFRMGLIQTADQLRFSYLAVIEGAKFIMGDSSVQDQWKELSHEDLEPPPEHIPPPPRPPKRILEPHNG
Description: A solution of 1% (w/v) Span 60 and 1% (w/v) cholesterol in decane (all from Sigma Aldrich) is prepared by dissolving 80 mg of Span 60 and 80 mg of cholesterol into 7.84 ml of decane. The decane is heated to 45° C. to allow complete solubilization of the surfactant and cholesterol. The surfactant/decane solution is divided over batches of 200 μl and placed in a block-heater at 37° C.
A hand-extruding device (Mini extruder, Avanti Polar Lipids Inc, Alabaster, Ala., USA) is assembled according to the manufacturer's instructions. For extrusion, a single 19 mm Track-Etch polycarbonate filter with average pore size of 14 μm (Whatman Nuclepore, Whatman, Maidstone, UK) is fitted inside the mini extruder. Two gas-tight 1 ml Hamilton syringes (Gastight #1001, Hamilton Co, Reno, Nev., USA) are used for extrusion. […]
The two emulsions are mixed by vortexing in ratios varying from 1:1000 to 1:1 (compound 2 emulsion: hydrocinnamic acid emulsion) and incubated at 37° C. for 30 min. Inhibitors reduce the amount of non-fluorescent substrate (DiFMUP) converted to the dephosphorylated product (DiFMU; excitation/emmission maxima 358/452 nm; blue fluorescence). […]
The double emulsions are then analysed by multi-colour flow cytometery using a MoFlo (Cytomation) flow cytometer. […]

[3] = molecular target: T1, human recombinant PTP1B, residues 1-322; assay: Screening for PTP1B inhibition using microcapsules in microfluidic systems (DiFMUP, epifluorescence microscope); format: biochemical; conditions: Example 5: 100 μM compound solution, PTP1B 50 mU/ml, microfluidic droplets in PFD carrier fluid
Description: Microchannels are fabricated with rectangular cross-sections using rapid prototyping in poly(dimethylsiloxane) (PDMS) (McDonald and Whitesides, 2002) and rendered hydrophobic as (Song and Ismagilov, 2003). Syringe pumps were used to drive flows (Harvard Apparatus PHD 2000 Infusion pumps). For aqueous solutions, 50 μl Hamilton Gastight syringes (1700 series, TLL) with removeable needles of 27-gaugeare used with 30-gauge Teflon tubing (Weico Wire and Cable). For the carrier fluid, 1 ml Hamilton Gastight syringes (1700 series, TLL) are used with 30-gauge Teflon needles with one hub from Hamilton (Song and Ismagilov, 2003). The carrier fluid is 9% (v/v) C6F11C2H4OH in perfluorodecaline (PFD) (Song et al., 2003). All water-soluble reagents were dissolved in (25 mM HEPES, pH 7.4, 125 mM NaCl, 1 mM EDTA), a buffer compatible with PTP1B activity.
These three steams are continuously injected into a flow of water immiscible fluorocarbon carrier fluid (9% (v/v) C6F11C2H4OH in PFD). Inlet channels for the aqeous solutions are […] wide and channel for PFD is 28 μm wide. […]
The channel immediately downstream of the point of droplet formation is winding with a peak to peak distance of 50 μm for a distance of 1 mm. […] Fluorescence of the microcapsules due to production of DiFMU (excitation/emmission maxima 358/452 nm; blue fluorescence) is measured using an epifluorescence microscope. […]

Compound | exchange between microdroplets / compartments [1] | blue fluorescence of microcapsules (dephosphorylation of DiFMUP by PTP1B) ([2]; Example 1: 100 μM compound, two emulsions mixed by vortexing) | blue fluorescence of microcapsules (dephosphorylation of DiFMUP by PTP1B) ([2]; Example 2: 100 μM compound, mixtures added sequentially while homogenising) | fluorescence of microcapsules due to production of DiFMU [3]
O=C(O)CN(CC(=O)O)Cc1cc2c(cc1O)Oc1cc(O)c(CN(CC(=O)O)CC(=O)O)cc1C21OC(=O)c2ccccc21 [calcein] | No exchange | – | – | –
O=C(O)CCc1ccccc1 [hydrocinnamic acid] | – | blue fluorescence due to dephosphorylation of DiFMUP by PTP1B | blue fluorescence due to dephosphorylation of DiFMUP by PTP1B | exhibiting blue fluorescence
texas-red | No exchange | – | – | –
